We go through 5 compounds from US20250186469A1, “THERAPEUTIC AGENT FOR OVARIAN CLEAR CELL CARCINOMA” (JSR CORPORATION, priority 2022, published 2025).

Assay [1] has as its system ovarian clear cell carcinoma organoid. Kind of assay: Sensitivity test of ovarian clear cell carcinoma organoid (cell viability by ATP activity). In kind it is cell-based, human. Conditions: exposed for 3 days at 0.0001 to 10 μM, FIGS. 13, 14, 17. On the procedure:
Based on the above-described results of HTDS, the test focused on the proteasome inhibitors that were found with multiple hits among the 9 hit compounds. A proteasome inhibitor (bortezomib, carfilzomib, and ixazomib), a microtubule inhibitor (paclitaxel), and a platinum formulation (cisplatin and carboplatin) were prepared at each of final concentrations of 0.0001 μM, 0.001 µM, 0.01 μM, 0.1 μM, 1 μM, and 10 μM, the ovarian clear cell carcinoma organoid was exposed to each of the concentrations for 3 days, and the cell viability was measured by measuring the ATP activity.
FIGS. 13 and 14 show graphic views of the results of the measured cell viabilities.
For the CDK 1, 2, 5, and 9 inhibitor (dinaciclib) that was hit in the 9 compounds that were hit more in HTDS, the cell viability was measured by measuring an ATP activity in the same manner as in Experimental Example 8.

The next assay deals with ovarian cancer organoid. Kind of assay: Sensitivity test of ovarian cancer organoid to PARP inhibitor (cell viability by ATP activity). In kind it is cell-based, human. To be noted: exposed for 3 days at 0.0001 to 10 μM; each cell line; FIG. 7. On the procedure: A sensitivity test of the ovarian cancer organoid to olaparib was performed. Olaparib which is a kind of PARP inhibitor was prepared at a final concentration of each of 0.0001 μM, 0.001 μM, 0.01 μM, 0.1 μM, 1 μM, and 10 μM, and the ovarian cancer organoid was exposed to olaparib for 3 days at each concentration, and the cell viability was measured by measuring the ATP activity.
The vertical axis indicates the cell viability as a ratio to the control, and the horizontal axis indicates the final concentration (μM) of olaparib.

Assay [2] deals with ovarian clear cell carcinoma organoid CCC19-042. Put plainly: Drug sensitivity test for immunodeficient mouse transplanted with ovarian clear cell carcinoma organoid. It counts as in vivo. Conditions: 1 mg/kg intraperitoneally twice a week from the 7th day after transplantation, versus DMSO vehicle; FIG. 15C. On the procedure:
The ovarian clear cell carcinoma organoid CCC19-042 was cultured until it reached a diameter of approximately 50 to 100 μm. The organoid was recovered in a 50 mL tube after removing the culture medium from the plate and then suspending the organoid in a Cell Recovery Solution (Corning, 354235). The solution including the recovered organoid was placed on ice and the Matrigel was depolymerized. After the completion of the reaction, the organoid was washed with a culture medium and re-suspended in the Matrigel so that 1×10^6 cells were present in 100 μL.
The organoid corresponding to 1×10^6 cells was transplanted subcutaneously (left shoulder) in an immunodeficient mouse, and the tumor forming ability was evaluated on the 7th day after the transplantation. In addition, a thinly sliced slide was created from an FFPE section of the tumor and subjected to HE staining and HNF1β immunostaining.
With regard to the immunodeficient mouse transplanted with the ovarian clear cell carcinoma organoid shown in Experimental Example 9, administration, measurement of a weekly body weight, and calculation of a tumor volume were performed from the 7th day after transplantation. […]
The tumor volume was calculated by the following expression.

For `CC(=O)O[C@H]1C(=O)[C@@]2(C)[C@H]([C@H](OC(=O)c3ccccc3)[C@]3(O)C[C@H](OC(=O)[C@H](O)[C@@H](NC(=O)c4ccccc4)c4ccccc4)C(C)=C1C3(C)C)[C@]1(OC(C)=O)CO[C@@H]1C[C@@H]2O` [paclitaxel], in assay [1], the cell viability entry is “significant decrease in cell viability depending on the concentration”. Still for that read-out and setting: next, `CC(C)C[C@H](NC(=O)CNC(=O)c1cc(Cl)ccc1Cl)B(O)O` [ixazomib]: “significant decrease in cell viability depending on the concentration”.

Consider `O=C(c1cc(Cc2n[nH]c(=O)c3ccccc23)ccc1F)N1CCN(C(=O)C2CC2)CC1` [olaparib], for which, in the assay with ovarian cancer organoid, the “cell viability (ratio to the control)” value is on record as “reduced depending on the concentration”. For the compound `CC(C)C[C@H](NC(=O)[C@H](Cc1ccccc1)NC(=O)c1cnccn1)B(O)O` [bortezomib], the cell viability entry in assay [1] is reported as “significant decrease in cell viability depending on the concentration”. Further, in assay [2], the tumor volume entry is reported as “decrease in tumor volume”. On to `CC(C)C[C@H](NC(=O)[C@H](CCc1ccccc1)NC(=O)CN1CCOCC1)C(=O)N[C@@H](Cc1ccccc1)C(=O)N[C@@H](CC(C)C)C(=O)[C@@]1(C)CO1` [carfilzomib], for which the cell viability entry in assay [1] is reported as “significant decrease in cell viability depending on the concentration”.
